Measurements taken from patent US8785429B2, “Dihydropyrrolonaphthyridinone compounds as inhibitors of JAK” (Takeda Pharmaceutical Company Limited, priority 2009, dated 2014).

Legend:
[1] = target: T1, JAK3 (Homo sapiens, UniProt P52333); assay: Assay for JAK3 Inhibition (phosphorylation of FAM-labeled substrate, Caliper LC-3000); format: biochemical; details: −log10(IC50), IC50 is the molar concentration at 50% inhibition; read-out: JAK3 pIC50 (converted)
T1 construct: purchased Invitrogen
T1 sequence (P52333 1-1124): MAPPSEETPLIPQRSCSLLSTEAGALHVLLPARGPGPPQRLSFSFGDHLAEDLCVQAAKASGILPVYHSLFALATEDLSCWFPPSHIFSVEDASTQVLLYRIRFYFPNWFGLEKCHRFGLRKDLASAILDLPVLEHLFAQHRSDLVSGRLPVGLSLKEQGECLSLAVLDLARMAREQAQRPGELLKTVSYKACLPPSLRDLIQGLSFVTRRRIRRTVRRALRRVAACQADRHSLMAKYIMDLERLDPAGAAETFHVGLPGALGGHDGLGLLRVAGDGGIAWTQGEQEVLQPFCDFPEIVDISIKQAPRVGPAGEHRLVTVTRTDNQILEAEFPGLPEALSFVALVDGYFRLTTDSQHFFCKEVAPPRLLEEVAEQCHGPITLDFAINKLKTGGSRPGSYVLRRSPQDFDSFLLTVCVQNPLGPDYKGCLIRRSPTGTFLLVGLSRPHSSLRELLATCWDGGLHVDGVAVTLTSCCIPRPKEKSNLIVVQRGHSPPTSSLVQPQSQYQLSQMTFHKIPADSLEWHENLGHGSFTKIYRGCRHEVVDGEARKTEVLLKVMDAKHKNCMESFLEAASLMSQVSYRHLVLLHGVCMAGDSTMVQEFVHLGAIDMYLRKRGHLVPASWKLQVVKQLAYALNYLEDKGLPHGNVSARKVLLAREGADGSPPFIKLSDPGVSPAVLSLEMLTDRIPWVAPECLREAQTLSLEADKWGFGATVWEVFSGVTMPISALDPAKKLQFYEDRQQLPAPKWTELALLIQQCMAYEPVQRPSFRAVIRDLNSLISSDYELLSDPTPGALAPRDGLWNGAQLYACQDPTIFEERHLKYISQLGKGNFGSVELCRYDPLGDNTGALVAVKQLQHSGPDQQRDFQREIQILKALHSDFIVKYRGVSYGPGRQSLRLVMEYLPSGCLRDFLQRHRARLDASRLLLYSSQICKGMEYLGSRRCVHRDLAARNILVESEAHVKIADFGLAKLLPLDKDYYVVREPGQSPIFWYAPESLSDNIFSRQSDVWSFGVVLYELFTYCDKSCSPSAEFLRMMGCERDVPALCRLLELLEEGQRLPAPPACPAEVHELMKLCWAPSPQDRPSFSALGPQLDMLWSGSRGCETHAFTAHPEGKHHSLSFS

[2] = target: T2, JAK2 (Homo sapiens, UniProt O60674); assay: Assay for JAK2 Inhibition (phosphorylation of FAM-labeled substrate, Caliper LC-3000); format: biochemical; details: −log10(IC50), IC50 is the molar concentration at 50% inhibition; read-out: JAK2 pIC50 (converted)
T2 construct: purchased Invitrogen
T2 sequence (O60674 whole entry): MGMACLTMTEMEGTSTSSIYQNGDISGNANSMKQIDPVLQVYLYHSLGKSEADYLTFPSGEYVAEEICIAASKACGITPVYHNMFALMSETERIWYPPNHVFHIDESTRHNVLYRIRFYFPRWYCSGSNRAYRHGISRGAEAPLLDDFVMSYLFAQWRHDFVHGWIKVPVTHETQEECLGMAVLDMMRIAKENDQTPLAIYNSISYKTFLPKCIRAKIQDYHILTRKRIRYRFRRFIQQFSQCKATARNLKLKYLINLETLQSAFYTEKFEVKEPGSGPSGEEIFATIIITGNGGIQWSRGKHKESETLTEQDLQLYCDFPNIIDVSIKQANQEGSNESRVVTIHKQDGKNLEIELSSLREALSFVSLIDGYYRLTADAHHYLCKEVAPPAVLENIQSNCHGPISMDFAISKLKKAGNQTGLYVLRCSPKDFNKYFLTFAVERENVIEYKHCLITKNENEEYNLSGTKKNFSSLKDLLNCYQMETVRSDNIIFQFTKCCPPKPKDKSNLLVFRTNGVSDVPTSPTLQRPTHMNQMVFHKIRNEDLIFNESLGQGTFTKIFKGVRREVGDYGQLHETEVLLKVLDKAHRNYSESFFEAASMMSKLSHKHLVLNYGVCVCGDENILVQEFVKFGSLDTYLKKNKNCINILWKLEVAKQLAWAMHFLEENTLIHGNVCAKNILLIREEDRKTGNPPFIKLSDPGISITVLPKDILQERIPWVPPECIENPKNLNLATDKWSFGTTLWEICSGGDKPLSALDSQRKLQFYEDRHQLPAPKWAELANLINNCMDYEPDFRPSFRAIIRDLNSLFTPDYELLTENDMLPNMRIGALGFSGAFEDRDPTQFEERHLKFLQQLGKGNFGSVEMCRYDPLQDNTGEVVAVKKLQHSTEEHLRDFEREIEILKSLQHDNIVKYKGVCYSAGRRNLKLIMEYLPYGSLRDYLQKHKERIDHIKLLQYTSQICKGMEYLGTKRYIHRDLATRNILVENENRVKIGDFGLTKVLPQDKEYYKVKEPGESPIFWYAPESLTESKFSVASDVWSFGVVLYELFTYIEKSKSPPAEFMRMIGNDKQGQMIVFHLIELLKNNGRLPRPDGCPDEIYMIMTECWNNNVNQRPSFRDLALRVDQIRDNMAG

IC50 [1] [nM]	IC50 [2] [nM]	SMILES
3980	20000	CC[C@H](C(=O)NCC1CC1)N1Cc2ccnc3[nH]cc(c23)C1=O [Example 66, (R)—N-(cyclopropylmethyl)-2-(3-oxopyrrolo[4,3,2-de][2,6]naphthyridin-4(1H,3H,5H)-yl)butanamide]
251	5010	CC[C@H](C(=O)NCC(C)C)N1Cc2ccnc3[nH]cc(c23)C1=O [Example 67, (R)—N-isobutyl-2-(3-oxopyrrolo[4,3,2-de][2,6]naphthyridin-4(1H,3H,5H)-yl)butanamide]
2510	20000	CC[C@H](C(=O)N(C)CC(C)C)N1Cc2ccnc3[nH]cc(c23)C1=O [Example 68, (R)—N-isobutyl-N-methyl-2-(3-oxopyrrolo[4,3,2-de][2,6]naphthyridin-4(1H,3H,5H)-yl)butanamide]
631	10000	CC[C@H](C(=O)NC(C)CO)N1Cc2ccnc3[nH]cc(c23)C1=O (stereo partly drawn) [Example 69, (2R)—N-(1-hydroxypropan-2-yl)-2-(3-oxopyrrolo[4,3,2-de][2,6]naphthyridin-4(1H,3H,5H)-yl)butanamide]
501	10000	CC[C@H](C(=O)NCC(C)(C)O)N1Cc2ccnc3[nH]cc(c23)C1=O [Example 70, (R)—N-(2-hydroxy-2-methylpropyl)-2-(3-oxopyrrolo[4,3,2-de][2,6]naphthyridin-4(1H,3H,5H)-yl)butanamide]
794	5010	CC[C@H](C(=O)NC[C@H](O)CO)N1Cc2ccnc3[nH]cc(c23)C1=O [Example 71, (R)—N—((S)-2,3-dihydroxypropyl)-2-(3-oxopyrrolo[4,3,2-de][2,6]naphthyridin-4(1H,3H,5H)-yl)butanamide]
126	2000	CC[C@H](C(=O)Nc1ccccc1)N1Cc2ccnc3[nH]cc(c23)C1=O [Example 72, (R)-2-(3-oxopyrrolo[4,3,2-de][2,6]naphthyridin-4(1H,3H,5H)-yl)-N-phenylbutanamide]
158	3160	CC[C@H](C(=O)NC1CCN(S(C)(=O)=O)CC1)N1Cc2ccnc3[nH]cc(c23)C1=O [Example 73, (R)—N-(1-(methylsulfonyl)piperidin-4-yl)-2-(3-oxopyrrolo[4,3,2-de][2,6]naphthyridin-4(1H,3H,5H)-yl)butanamide]
794	7940	CC[C@H](C(=O)NCC1CCCO1)N1Cc2ccnc3[nH]cc(c23)C1=O (stereo partly drawn) [Example 74, (2R)-2-(3-oxopyrrolo[4,3,2-de][2,6]naphthyridin-4(1H,3H,5H)-yl)-N-((tetrahydrofuran-2-yl)methyl)butanamide]
31.6	794	CC(C#N)NC(=O)[C@@H](C(C)C)N1Cc2c(F)cnc3[nH]cc(c23)C1=O (stereo partly drawn) [Example 75, (2R)—N-(1-cyanoethyl)-2-(6-fluoro-3-oxopyrrolo[4,3,2-de][2,6]naphthyridin-4(1H,3H,5H)-yl)-3-methylbutanamide]
63.1	1000	CC(C)[C@H](C(=O)N1CC(F)(F)C1)N1Cc2c(F)cnc3[nH]cc(c23)C1=O [Example 76, (R)-4-(1-(3,3-difluoroazetidin-1-yl)-3-methyl-1-oxobutan-2-yl)-6-fluoro-4,5-dihydropyrrolo[4,3,2-de][2,6]naphthyridin-3(1 H)-one]
63.1	1580	CC(C)[C@H](C(=O)N1CCS(=O)(=O)C1)N1Cc2c(F)cnc3[nH]cc(c23)C1=O [Example 77, (R)-4-(1-(1,1-dioxidothiazolidin-3-yl)-3-methyl-1-oxobutan-2-yl)-6-fluoro-4,5-dihydropyrrolo[4,3,2-de][2,6]naphthyridin-3(1H)-one]
3980	10000	CC(C)[C@H](C(=O)N(C)CCS(C)(=O)=O)N1Cc2c(F)cnc3[nH]cc(c23)C1=O [Example 78, (R)-2-(6-fluoro-3-oxopyrrolo[4,3,2-de][2,6]naphthyridin-4(1H,3H,5H)-yl)-N,3-dimethyl-N-(2-(methylsulfonyl)ethyl)butanamide]
126	2510	CC(C)[C@H](C(=O)N(C)CC#N)N1Cc2c(F)cnc3[nH]cc(c23)C1=O [Example 79, (R)—N-(cyanomethyl)-2-(6-fluoro-3-oxopyrrolo[4,3,2-de][2,6]naphthyridin-4(1H,3H,5H)-yl)-N,3-dimethylbutanamide]
15.8	398	CC(C)[C@H](C(=O)N1CC(C(F)F)C1)N1Cc2c(F)cnc3[nH]cc(c23)C1=O [Example 80, (R)-4-(1-(3-(difluoromethyl)azetidin-1-yl)-3-methyl-1-oxobutan-2-yl)-6-fluoro-4,5-dihydropyrrolo[4,3,2-de][2,6]naphthyridin-3(1H)-one]
5.01	126	CC(C)[C@H](C(=O)N1CC(C#N)C1)N1Cc2ccnc3[nH]cc(c23)C1=O [Example 81, (R)-1-(3-methyl-2-(3-oxopyrrolo[4,3,2-de][2,6]naphthyridin-4(1H,3H,5H)-yl)butanoyl)azetidine-3-carbonitrile]
2	39.8	CC(C)(C)[C@H](C(=O)N1CC(C#N)C1)N1Cc2ccnc3[nH]cc(c23)C1=O [Example 82, (R)-1-(3,3-dimethyl-2-(3-oxopyrrolo[4,3,2-de][2,6]naphthyridin-4(1H,3H,5H)-yl)butanoyl)azetidine-3-carbonitrile]
12.6	251	CC(C)(C)[C@H](C(=O)NCC#N)N1Cc2ccnc3[nH]cc(c23)C1=O [Example 83, (R)—N-(cyanomethyl)-3,3-dimethyl-2-(3-oxopyrrolo[4,3,2-de][2,6]naphthyridin-4(1H,3H,5H)-yl)butanamide]
200	3160	CC(C)[C@H](C(=O)N1CCC[C@H]1C#N)N1Cc2c(Cl)cnc3[nH]cc(c23)C1=O [Example 84, (S)-1-((R)-2-(6-chloro-3-oxopyrrolo[4,3,2-de][2,6]naphthyridin-4(1H,3H,5H)-yl)-3-methylbutanoyl)pyrrolidine-2-carbonitrile]
100	1580	CC(C)[C@H](C(=O)N1CCC[C@@H]1C#N)N1Cc2c(Cl)cnc3[nH]cc(c23)C1=O [Example 85, (R)-1-((R)-2-(6-chloro-3-oxopyrrolo[4,3,2-de][2,6]naphthyridin-4(1H,3H,5H)-yl)-3-methylbutanoyl)pyrrolidine-2-carbonitrile]
25.1	398	CC(C)[C@H](C(=O)N1C[C@@H](F)C[C@H]1C#N)N1Cc2c(Cl)cnc3[nH]cc(c23)C1=O [Example 86, (2S,4S)-1-((R)-2-(6-chloro-3-oxopyrrolo[4,3,2-de][2,6]naphthyridin-4(1H,3H,5H)-yl)-3-methylbutanoyl)-4-fluoropyrrolidine-2-carbonitrile]
3.16	50.1	Cc1cnc2[nH]cc3c2c1CN([C@@H](C(=O)N1CC(C#N)C1)C(C)(C)C)C3=O [Example 87, (R)-1-(3,3-dimethyl-2-(6-methyl-3-oxopyrrolo[4,3,2-de][2,6]naphthyridin-4(1H,3H,5H)-yl)butanoyl)azetidine-3-carbonitrile]
1.58	25.1	Cc1cnc2[nH]cc3c2c1CN([C@@H](C(=O)N1CC(C#N)C1)C(C)C)C3=O [Example 88, (R)-1-(3-methyl-2-(6-methyl-3-oxopyrrolo[4,3,2-de][2,6]naphthyridin-4(1H,3H,5H)-yl)butanoyl)azetidine-3-carbonitrile]
